Measurements published in patent US20110230430A1, “SAPONIN EXTRACT FROM SAPONARIA SPP. AND USES THEREOF” (NATIONAL RESEARCH COUNCIL OF CANADA, priority 2008, published 2011).

Key:
[1] = test system: PC-3, MDA-MB-231, WiDr, and HT-29 Cells; experiment: Order of apoptosis potency across cancer cell lines; parameters: species or system human; conditions: rank based on responses observed in PC-3, MDA-MB-231, WiDr, and HT-29 Cells; 1 = most active
[2] = test system: MDA-MB-231 cells; experiment: Dual Sensor: MitoCasp Assay in MDA-MB-231 breast cancer cells; assay type: cell-based, human
Source text: (§1) Techniques to assay enzymatic and signaling processes involved in apoptosis have been developed as standard protocols. One example of an early step in apoptosis, is the release of cytochrome C from mitochondria and the activation of caspase-3. Induction of the caspases (a series of cytosolic proteases) is one of the most consistently observed features of apoptosis. Caspases are a family of proteolytic enzymes that transmit the apoptotic signal using a proteolytic cascade. […] Caspases 3 and 7 are effector caspases, central to the caspase cascade pathways. In particular, caspase-3 plays a central role in the process. When caspases are activated, they cleave target proteins; one of the most important of these is poly-(ADP-ribose) polymerase (PARP), which is a protein located in the nucleus. Therefore, assays detecting release of cytochrome C, detecting caspase-3 activity and detecting PARP degradation are effective determinants of apoptosis. The loss of mitochondrial membrane potential is known to occur during apoptosis. To analyze mitochondrial membrane potential, a cationic dye may be used which accumulates in the mitochondria of healthy cells. Collapse of the mitochondrial membrane potential during apoptosis prevents the dye from accumulating in the mitochondria resulting in a decrease in fluorescent intensity that can be detected with flow cytometry. Dual Sensor: MitoCasp™ (Cell Technology) used herein in the Examples is an assay that measures caspase 3/7 activity and cells with decreased mitochondrial membrane potential. In this assay, caspase 3/7 activity is detected using a cell permeable carboxyfluorescein labeled caspase inhibitor, which binds covalently to active caspases 3 and 7. Cells that contain bound inhibitor are detected by an increase in fluorescence when samples are analyzed by flow cytometry.
(§2) Following centrifugation at 500×g for 5 min, cell pellets were resuspended in PBS at 3.3×10^6 cells/mL. 300 μL cell suspension was mixed with 10 μL each of 30X Mitochondria Membrane Potential Dye and 30X Caspase 3/7 detection reagent. Following incubation for 60 min under normal growth conditions, cells were washed twice with 1× wash buffer and resuspended in 0.5 mL 1× wash buffer. Samples were analyzed by flow cytometry measuring the fluorescence emissions from 515 nm to 530 nm for caspase detection, and 574 nm to 600 nm for mitochondrial membrane potential detection.
The MDA-MB-231 cell line (ATCC #HTB-26) was derived from the pleural effusion of a patient with a breast adenocarcinoma (Cailleau et al., 1974). The cells were maintained in RPMI 1640 (Gibco) supplemented with 10% fetal bovine serum (Camera), 100 U/mL penicillin, 100 μg/mL streptomycin and 0.25 μg/mL amphotericin B. Cultures were maintained in medium at 37° C. with 5% CO2 and 100% relative humidity. […]

[3] = test system: PC-3 cells; experiment: Vybrant Apoptosis Assay Kit #2 in PC-3 cells; assay type: cell-based, human
Source text: Another apoptotic assay is the Annexin-V detection of extracellular phosphatidlyserine (PS). Normally, phosphatidylserine is localized on the inner membrane of the plasmalemma. However, during the early stages of apoptosis, externalization of PS takes place. Annexin-V is a calcium binding protein which binds to PS and can be observed with annexin-V-FITC staining by flow cytometry (Martin, et al., 1995). Alexa Fluor® 488-labeled Annexin V, which has a high affinity for PS, is used to detect apoptotic cells by binding to PS on the outer surface of the cell. Propidium iodide staining is used concurrently to detect dead cells. When cells are analyzed by flow cytometry apoptotic cells show Annexin V staining, late apoptotic cells show PI and Annexin V staining, and dead cells show only PI staining. The Vybrant® Apoptosis Assay Kit #2 (Molecular Probes™) used herein in the Examples is an assay that measures Annexin-V positive cells.
PC-3 cells (ATCC #CRL-1435) were derived from a prostate adenocarcinoma (Kaighn et al., 1979). They were maintained in RPMI 1640 medium (Gibco) supplemented with 10% fetal bovine serum (Cansera), 100 U/mL penicillin, and 100 μg/mL streptomycin and 0.25 μg/mL amphotericin B. Cultures were maintained in medium at 37° C. with 5% CO2 and 100% relative humidity.
PC-3 cells were seeded in tissue culture flasks with regular growth medium and maintained under normal conditions. […] Following incubation under normal growth conditions for the specified time, cells were washed once with cold phosphate-buffered saline (PBS) (137 mM NaCl, 2.7 mM KCl, 4.3 mM Na2HPO4.7H2O, 1.4 mM KH2PO4) and harvested as previously described. Assays were carried out according to instructions given in kits. All Flow Cytometry was performed using a Coulter Epics XL (Beckman).

[4] = test system: CRL-2522 cells; experiment: Dual Sensor: MitoCasp Assay in CRL-2522 normal fibroblast cells; assay type: cell-based, human; conditions: for Cells with caspase 3/7 activity / Cells with decreased mitochondrial membrane potential / Effect on apoptosis (in words) / Cells with Caspase 3/7 activity and decreased mitochondrial membrane potential vs untreated (in words): CRL-2522 cells; for Apoptosis in non-cancerous cell line (summary in words): fibroblast cell line CRL-2522, summary of the Examples
Source text: as §1, §2
CRL-2522 cells, acquired from ATCC, (American Type Culture Collection) are normal fibroblast cells that originated from human foreskin. CRL-2522 cells were maintained in RPMI 1640 medium (Gibco) supplemented with 10% fetal bovine serum (Cansera), 100 U/mL penicillin, 100 μg/mL streptomycin and 0.25 μg/mL amphotericin B. Cultures were maintained in medium at 37° C. with 5% CO2 and 100% relative humidity. […]

[5] = 5.0 μM saponin, 36 hours (comparison of saponins)

In the case of Segetoside H [PC1448], the “Order of Apoptosis Potency” value [1] is reported as 7, the “Cells with caspase 3/7 activity” value ([2]; 2.5 μM PC1448, 36 hr) is reported as 19.3% and the “Cells with decreased mitochondrial membrane potential” value ([2]; 2.5 μM PC1448, 36 hr) is reported as 9.9%. The “Cells with caspase 3/7 activity” value ([2]; 5.0 μM PC1448, 36 hr) was 25.8%, the “Cells with decreased mitochondrial membrane potential” value ([2]; 5.0 μM PC1448, 36 hr) was 12.6% and the “Cells with caspase 3/7 activity” value [2, 5] was 12.8%. For the same substance, the “Cells with decreased mitochondrial membrane potential” value [2, 5] was 5.3%, the “Cells with caspase 3/7 activity” value ([2]; 10.0 μM PC1448, 36 hr) was 40.0% and the “Cells with decreased mitochondrial membrane potential” value ([2]; 10.0 μM PC1448, 36 hr) was 17.9%. The “Cells with caspase 3/7 activity” value ([2]; 15.0 μM PC1448, 36 hr) was 40.9%, the “Cells with decreased mitochondrial membrane potential” value ([2]; 15.0 μM PC1448, 36 hr) was 20.8% and the “Concentration of greatest effect on apoptosis” value ([2]; 36 hours) was “above 10 μM”. The “Induction of apoptosis at concentrations as low as” value ([2]; 36 hours) was 5.0 µM, the Annexin-V positive cells ([3]; 14 μM PC1448, 06 hr) was 12.4% and the Annexin-V positive cells ([3]; 14 μM PC1448, 16 hr) was 28.3%. The Annexin-V positive cells ([3]; 14 μM PC1448, 24 hr) was 34.7%, the “Increase in Annexin V positive cells vs untreated” value ([3]; 14 μM PC1448, 24 hr) was “three fold” and the “Cells with caspase 3/7 activity” value ([4]; 2.5 μM PC1448, 37 hr) was 1.7%. For the same substance, the “Cells with decreased mitochondrial membrane potential” value ([4]; 2.5 μM PC1448, 37 hr) was 5.6%, the “Cells with caspase 3/7 activity” value ([4]; 5.0 μM PC1448, 37 hr) was 4.0% and the “Cells with decreased mitochondrial membrane potential” value ([4]; 5.0 μM PC1448, 37 hr) was 5.0%. The “Cells with caspase 3/7 activity” value ([4]; 10.0 μM PC1448, 37 hr) was 21.9%, the “Cells with decreased mitochondrial membrane potential” value ([4]; 10.0 μM PC1448, 37 hr) was 4.6% and the “Effect on apoptosis (in words)” value ([4]; 14 μM PC1448, 10-30 hr) was “no significant effect on apoptosis”. The “Cells with caspase 3/7 activity” value ([4]; 14 μM PC1448, 10 hr) was 3.7%, the “Cells with decreased mitochondrial membrane potential” value ([4]; 14 μM PC1448, 10 hr) was 1.4% and the “Cells with caspase 3/7 activity” value ([4]; 14 μM PC1448, 20 hr) was 5.5%. The “Cells with decreased mitochondrial membrane potential” value ([4]; 14 μM PC1448, 20 hr) was 1.4%, the “Cells with caspase 3/7 activity” value ([4]; 14 μM PC1448, 30 hr) was 32.8% and the “Cells with decreased mitochondrial membrane potential” value ([4]; 14 μM PC1448, 30 hr) was 0.8%. The “Cells with caspase 3/7 activity” value ([4]; 15.0 μM PC1448, 37 hr) was 9.4%, the “Cells with decreased mitochondrial membrane potential” value ([4]; 15.0 μM PC1448, 37 hr) was 18.5% and the “Cells with Caspase 3/7 activity and decreased mitochondrial membrane potential vs untreated (in words)” value ([4]; PC1448 15.0-2.5 μM, 37 hours) was “variable increase”. The “Apoptosis in non-cancerous cell line (summary in words)” value [4] was “no or little apoptosis”.

For Segetoside I [PC1464], the “Order of Apoptosis Potency” value [1] was 4, the “Cells with caspase 3/7 activity” value ([2]; 1.25 μM PC1464, 35 hr) was 16.7% and the “Cells with decreased mitochondrial membrane potential” value ([2]; 1.25 μM PC1464, 35 hr) was 15.6%. The “Cells with caspase 3/7 activity” value ([2]; 2.5 μM PC1464, 35 hr) was 32.4%, the “Cells with decreased mitochondrial membrane potential” value ([2]; 2.5 μM PC1464, 35 hr) was 21.2% and the “Cells with caspase 3/7 activity” value ([2]; 3.5 μM PC1464, 12 hr) was 20.0%. The “Cells with decreased mitochondrial membrane potential” value ([2]; 3.5 μM PC1464, 12 hr) was 19.9%, the “Cells with caspase 3/7 activity” value ([2]; 3.5 μM PC1464, 24 hr) was 27.5% and the “Cells with decreased mitochondrial membrane potential” value ([2]; 3.5 μM PC1464, 24 hr) was 51.5%. The “Increase in number of cells with caspase 3/7 activity” value ([2]; 3.5 μM PC1464, 36 hours) was “two fold”, the “Increase in number of cells with reduced mitochondrial membrane potential” value ([2]; 3.5 μM PC1464, 36 hours) was “eight fold” and the “Cells with caspase 3/7 activity” value ([2]; 3.5 μM PC1464, 36 hr) was 29.1%. The “Cells with decreased mitochondrial membrane potential” value ([2]; 3.5 μM PC1464, 36 hr) was 52.0%, the “Cells with caspase 3/7 activity” value ([2]; 5.0 μM PC1464, 35 hr) was 53.0% and the “Cells with decreased mitochondrial membrane potential” value ([2]; 5.0 μM PC1464, 35 hr) was 32.8%. The “Cells with caspase 3/7 activity” value [2, 5] was 39.9%, the “Cells with decreased mitochondrial membrane potential” value [2, 5] was 13.7% and the “Cells with caspase 3/7 activity” value ([2]; 10.0 μM PC1464, 35 hr) was 55.7%. For the same substance, the “Cells with decreased mitochondrial membrane potential” value ([2]; 10.0 μM PC1464, 35 hr) was 39.6%, the “Concentration of greatest effect on apoptosis” value ([2]; 35 hours) was “above 5 μM” and the “Induction of apoptosis at concentrations as low as” value ([2]; 35 hours) was 2.5 µM. For the same substance, the Annexin-V positive cells ([3]; 7 μM PC1464, 10 hr) was 21.0%, the Annexin-V positive cells ([3]; 7 μM PC1464, 20 hr) was 30.9% and the Annexin-V positive cells ([3]; 7 μM PC1464, 30 hr) was 44.7%. The “Increase in Annexin V positive cells vs untreated” value ([3]; 7 μM or 14 μM PC1464, 30 hr) was “three to six fold”, the Annexin-V positive cells ([3]; 14 μM PC1464, 10 hr) was 11.5% and the Annexin-V positive cells ([3]; 14 μM PC1464, 20 hr) was 28.9%. For the same substance, the Annexin-V positive cells ([3]; 14 μM PC1464, 30 hr) was 49.4%, the “Cells with caspase 3/7 activity” value ([4]; 1.25 μM PC1464, 36 hr) was 1.7% and the “Cells with decreased mitochondrial membrane potential” value ([4]; 1.25 μM PC1464, 36 hr) was 1.7%. For the same substance, the “Cells with caspase 3/7 activity” value ([4]; 2.5 μM PC1464, 36 hr) was 3.2%, the “Cells with decreased mitochondrial membrane potential” value ([4]; 2.5 μM PC1464, 36 hr) was 1.4% and the “Cells with caspase 3/7 activity” value ([4]; 5.0 μM PC1464, 36 hr) was 14.4%. The “Cells with decreased mitochondrial membrane potential” value ([4]; 5.0 μM PC1464, 36 hr) was 1.3%, the “Effect on apoptosis (in words)” value ([4]; 7 μM PC1464, 10-30 hr) was “minimal effect” and the “Cells with caspase 3/7 activity” value ([4]; 7 μM PC1464, 10 hr) was 3.2%. The “Cells with decreased mitochondrial membrane potential” value ([4]; 7 μM PC1464, 10 hr) was 4.4%, the “Cells with caspase 3/7 activity” value ([4]; 7 μM PC1464, 20 hr) was 11.7% and the “Cells with decreased mitochondrial membrane potential” value ([4]; 7 μM PC1464, 20 hr) was 4.4%. The “Cells with caspase 3/7 activity” value ([4]; 7 μM PC1464, 30 hr) was 16.9%, the “Cells with decreased mitochondrial membrane potential” value ([4]; 7 μM PC1464, 30 hr) was 5.1% and the “Cells with caspase 3/7 activity” value ([4]; 10.0 μM PC1464, 36 hr) was 19.9%. The “Cells with decreased mitochondrial membrane potential” value ([4]; 10.0 μM PC1464, 36 hr) was 2.2%, the “Cells with Caspase 3/7 activity and decreased mitochondrial membrane potential vs untreated (in words)” value ([4]; PC1464 10.0-1.25 μM, 36 hours) was “slight increase” and the “Apoptosis in non-cancerous cell line (summary in words)” value [4] was “no or little apoptosis”.
